{
  "source": "patent US20190208782A1",
  "about": "“PROCESSING COMPOSITION FOR C[…] WEEDS” (Arch Chemicals, Inc., priority 2018, published 2019)",
  "assay_type_in_all_cases": "in vivo",
  "key": {"[1]": {"test_system": "Eurasian watermilfoil", "test": "Fluroxypyr potassium salt vs ester formulation on Eurasian watermilfoil in small scale aquaria (Example 3)", "settings": "24 h exposure, 4 WAT", "procedure": "Materials and Methods: Eurasian watermilfoil was obtained from cultures. Two apical tips approximately 10 cm long were planted into each of 96, plastic containers (473 mL). The containers were filled with potting soil and amended with 2 g/L/soil Osmocote® fertilizer 19-6-12. A layer of sand was placed on top of the sediment in each container to prevent sediment re-suspension in the aquaria. Four containers of potted Eurasian watermilfoil were placed into each of 24 aquaria. Each aquaria was filled to a volume of 45 L and plants allowed to grow approximately 2-3 weeks prior to herbicide treatments or until plants were at or near the water surface. Pre-treatment biomass was harvested from extra aquaria set up with pots for this purpose. Biomass was harvested by cutting aboveground biomass of plants at the soil surface in the three pretreatment aquaria. Harvested plant material was placed into individually labeled paper bags, dried in a force air oven at 50 C for at least 48 h, and then weighed to assess biomass. […]\nEach week, aquaria were rated for percent control on a 0-100% scale (0%=no control; 100% complete plant mortality). […] Differences between treatments were analyzed using ANOVA and means separated using a Fisher's Protected LSD test at a p≤0.05 significance level."}, "[2]": {"test_system": "Eurasian watermilfoil", "test": "Fluroxypyr potassium salt formulations vs ester on Eurasian watermilfoil under mesocosm conditions (Example 4)", "settings": "200 ug/L, 24 h exposure, 4 WAT", "procedure": "Eurasian watermilfoil was obtained from cultures. Two apical tips approximately 15 cm long were planted into each of 204, plastic containers (940 mL). The containers were filled with potting soil and amended with 2 g/L/soil Osmocote® fertilizer 19-6-12. Four containers of potted Eurasian watermilfoil were placed into each of 51 mesocosm tanks. Tanks were filled to a volume of 257 L and plants allowed to grow approximately 2-3 weeks prior to herbicide treatments, or until plants were at or near the water surface. Pre-treatment biomass was harvested from three tanks set up with pots for this purpose. Biomass was harvested by collecting aboveground biomass of plants from all of the pots in each of the pretreatment tanks. Plant material was placed into individually labeled paper bags, dried in a force air oven at 50 C for at least 48 h, and then weighed to assess biomass,\nAfter pre-treatment data collection, liquid herbicides were applied as a concentrated aqueous formulation using the rates and products outlined in Table 6. […]\nFour weeks after treatment (WAT), living plants were, harvested, sorted to aboveground biomass (if any), dried in a forced air oven at 50 C for at least 48 h, and weighed for biomass determination. Differences between treatments were analyzed using ANOVA with treatment means separated using a Fisher's Protected LSD test at a p≤0.05 significance level."}, "[3]": {"test_system": "sago pondweed (Stuckenia pectinata)", "test": "Native plant selectivity screening in aquaria, sago pondweed (Example 6)", "settings": "50-3200 ug/L", "procedure": "Materials and Methods: The study was conducted in an indoor aquaria facility. Elodea (Elodea canadensis) was obtained from cultures. Two apical tips approximately 10 cm long were planted into each of 48, plastic containers (16 oz. plastic cups). The containers were filled with potting soil and amended with 2 g/L Osmocote® fertilizer 19-6-12. A layer of sand was placed on top of the sediment in each container to prevent sediment re-suspension in the aquaria. Two containers of potted elodea were placed into each of 24 aquaria measuring 11.5 in×11.5 in×24 in. Additionally, sago pondweed (Stuckenia pectinata) tubers were obtained. The tubers were floated in shallow containers filled with water until new sprouts began to grow.\nOnce sprouted, two tubers were planted into 16 oz containers in a similar fashion as elodea. Two containers of potted sago pondweed were placed into each of the 24 aquaria, so that each aquarium had 4 potted plants (2 pots of each species). […]\nAt four weeks after treatment (WAT), plants were, harvested, sorted to aboveground biomass, dried in a forced air oven at 50 C for at least 48 h, and weighed for biomass determination (g/DW/aquaria). Differences between treatments were analyzed using an ANOVA, and if treatment differences were detected; means were separated using a Tukey's All-Pairwise comparison test. […]"}},
  "data": [
    {"smiles": "CCCCCCC(C)OC(=O)COc1nc(F)c(Cl)c(N)c1Cl", "note": "(centres unmarked) [Fluroxypyr ester, [(4-amino-3,5-dichloro-6-fluoro-2-pyridinyl)oxy]acetic acid, 1-methylheptyl ester]", "values": [
      {"measurement": "Eurasian watermilfoil biomass reduction", "setting": "[1]; 200 ug/L", "result": 100, "unit": "%"},
      {"measurement": "Eurasian watermilfoil biomass reduction", "setting": "[1]; 400 ug/L", "result": 100, "unit": "%"},
      {"measurement": "Eurasian watermilfoil biomass reduction", "setting": "[2]", "result": 98, "unit": "%"},
      {"measurement": "adverse effects on sago pondweed", "setting": "[3]; four weeks of static exposure", "result": "did not exhibit any adverse effects"},
      {"measurement": "visible herbicide symptoms on sago pondweed", "setting": "[3]; throughout the study, static exposure", "result": "no visible herbicide symptoms"}
    ]}
  ]
}
